# According to publication PMC4113456, “Atypical Signaling and Functional Desensitization Response of MAS Receptor to Peptide Ligands” (PLoS ONE, 2014):
# Where a chain is given by its changes, count along the chain named.
# Columns and labels:
# MAS = biological target: T1, MAS (Homo sapiens, UniProt P04201); assay: Intracellular cAMP assay, induced MAS cells; assay type: cell-based; details: data not shown
# T1 construct: expressed in transfected cells
# T1 sequence (P04201 1-325): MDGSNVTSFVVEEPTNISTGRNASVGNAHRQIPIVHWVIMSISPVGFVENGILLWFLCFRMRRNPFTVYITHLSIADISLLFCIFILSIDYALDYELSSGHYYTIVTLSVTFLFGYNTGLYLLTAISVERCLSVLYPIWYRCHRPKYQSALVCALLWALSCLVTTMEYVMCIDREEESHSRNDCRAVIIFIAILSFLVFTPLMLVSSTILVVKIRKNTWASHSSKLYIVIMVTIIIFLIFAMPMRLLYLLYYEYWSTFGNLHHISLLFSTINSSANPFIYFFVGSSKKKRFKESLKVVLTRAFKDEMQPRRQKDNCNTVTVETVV
# Experimental: Measurement of intracellular cAMP. The intracellular cAMP levels were measured using CatchPoint™ cAMP Fluorescent assay kit from Molecular devices (Molecular Devices, Sunnyvale, CA). For the cAMP assay, the cells were plated at a density of 1.25 million cells/well in a six-well plate. The cells were maintained in a cell culture incubator and induced the following day with doxycycline. The cells were serum starved for 2h following the induction for 26-28h. At this point the serum free media was replaced with 1ml of 3-Isobutyl-1-methylxanthine (Sigma-Aldrich, St. Louis, MO) at 1mM concentration for 15min at 37°C. Following this, 250µl of ligands were added at 5x concentration to the wells and incubated for another 15min at 37°C. The plates were then immediately transferred to ice and the cells were lysed with 150µl of lysis buffer provided with kit. The cAMP levels in the lysed samples were measured according to the protocol provided by the supplier.
# [1] = Solubility of ligand stock in assay buffer; assay type: physicochemical; details: 5x ligand stock in D-PBS, at greater than 50 µM
# MAS T270A mutant = biological target: T2, MAS T270A mutant (Homo sapiens, UniProt P04201, T270A); assay: Calcium assay, T270A MAS mutant stable cell line; assay type: cell-based
# T2 construct: expressed in transfected cells
# T2 sequence (P04201 1-325 T270A): T1 sequence (P04201 1-325) with T270A
# Experimental: (§1) The assay was performed using FLIPR Calcium 5 assay kit (Molecular Devices, Sunnyvale, CA). For calcium measurements, cells at a density of 125,000 cells/well in 100 µl medium were seeded onto a 96-well clear bottom black cell culture plate that was pre-coated with poly-L-lysine. In the calcium assays the cell density of 125,000 cells/well was consistently maintained to minimize variability between independent experiments. The cells were seeded in induction media to induce MAS expression or in complete media for negative controls. The plate was maintained in a cell culture incubator for 26–28 h. The cells were then serum starved for 2 h by replacing the medium with 100 µl of serum free DMEM. In the case of pre-treatment with pan-inhibitor of G protein signaling, BIM-46187, the cells were initially serum starved for 1 h by replacing the medium with 50 µl of serum free DMEM. After 1 h, 50 µl of BIM-46187 was added to the cells to a final concentration of 25 µM and treated for another 1 h. Following serum starvation, 100 µl of calcium sensitive dye along with 2x (2.5 mM final concentration) probenecid (Life Technologies, Grand Island, NY) was added to the cells. During this step, AR-inverse agonist or BIM-46187 was also added at desired concentrations to the calcium dye preparation in case of experiments where cells were pre-treated with these inhibitors. The cells were maintained for one hour in the cell culture incubator. […] The instrument was programmed in FLEX mode to add ligands (50 µl at 5x concentration) to the cells and to monitor the fluorescence before and after adding the ligands. […]
# (§2) The kinetic parameter t1/2 (time taken to reach half of the maximum response) was determined using SoftMax Pro software supplied with the FlexStation 3 instrument (Molecular Devices, Sunnyvale, CA).
# (§3) For re-stimulation assays, the data is expressed as the percentage of maximum agonist stimulation to allow for ready comparison between individual experiments. […]
# MAS I191A mutant = biological target: T3, MAS I191A mutant (Homo sapiens, UniProt P04201, I191A); assay: Calcium assay, I191A MAS mutant stable cell line; assay type: cell-based
# T3 construct: expressed in transfected cells
# T3 sequence (P04201 1-325 I191A): T1 sequence (P04201 1-325) with I191A
# Experimental: as §1, §2, §3
structure (smiles),measurement,setting,value
COc1cc([N+](=O)[O-])ccc1S(=O)(=O)N1CC(CN2CCN(c3ccccn3)CC2)C(c2cccc(F)c2)C1 (stereo not drawn) [AR-agonist],Effect on cAMP levels,MAS,decreased cAMP levels
same,Solubility,[1],solubility issues
same,"EC50, Calcium assay",MAS T270A mutant,cbd
same,"t1/2, Calcium assay",MAS T270A mutant,40.0 ± 1.2 s
same,EC50,MAS I191A mutant,17.6 ± 3.8 µM
same,"t1/2, Calcium assay",MAS I191A mutant,68.3 ± 5.3 s
